According to patent US20250296909A1, “NOVEL BENZENE DERIVATIVE AND IMMUNOSUPPRESSION-RELATED USE THEREOF” (PROVIBIO CO., LTD., priority 2021, published 2025):

Tests used:
[1] = tested on: T lymphocyte cell line Jurkat E6-1; test: Cytotoxicity experiment (CCK-8, relative cell survival); type: cell-based; details: 24 hours, untreated cells = 100%
Protocol: To evaluate the cytotoxicity of the compound according to the present invention, the following experiment was conducted.
The T lymphocyte cell line Jurkat E6-1, purchased from the Korean Cell Line Bank, was cultured in RPMI-1640 medium comprising 10% FBS, 100 U/mL penicillin, and 100 μg/mL streptomycin. After culturing, the cells were harvested and centrifuged at 1,300 rpm for 5 minutes. After removal of the supernatant, the cells were resuspended in the same medium at a concentration of approximately 2.2×10^5 cells/mL, and 90 μL of the cell suspension was distributed per well into a 96-well plate (Costar 96 well cell culture plate, Corning). After treating 10 μL of each compound at different concentrations onto the respective wells of the plate, it was cultured for 24 hours at 37° C. in a 5% CO2 incubator. Subsequently, 10 μL of CCK-8 was added to each well, and it was cultured again for 2 hours at 37° C. in a 5% CO2 incubator. Absorbance was then measured at 450 nm to determine the relative cell survival rate compared to untreated cells, as shown in Table 4.
The values listed in Table 4 represent the relative cell survival rates in the groups treated with each compound at different concentrations, with the cell survival rate of untreated cells set as 100%.

spleen T cells = test: T cell proliferation inhibition (CFSE, FACS), CD3/CD28-activated spleen T cells; type: cell-based, C57BL/6 mice; details: Table 2, 3 days, relative to CD3/CD28+DMSO; for inhibition at 10 µM / inhibition at 30 µM / inhibition at 50 µM: Mus musculus, T-cell, 72 h, read-out: Proliferation inhibition rate (%)
Protocol: To investigate whether the compounds obtained in the Preparation Example have an inhibitory effect on T cell proliferation, the T cell proliferation was determined ex vivo using the fluorescent dye carboxyfluorescein diacetate succinimidyl ester (CFSE), which binds to intracellular molecules by covalent bonds.
Spleens were harvested and minced from C57BL/6 mice at 7 weeks of age, and then single cells were isolated using a strainer (40 μm pore size, SPL). Red blood cells were removed using ACK (Ammonium-Chloride-Potassium) lysis buffer to isolate only leukocytes. Subsequently, CD90.2 microbeads (130-121-278, Miltenyi Biotech.) were added, and subjected to react at 4° C. for 20 minutes. After that, spleen T cells were isolated using a MACS Magnetic Stand and LS column. The isolated T cells from the spleen were resuspended in 1 mL of Free media (RPMI-1640+200 U/mL penicillin+200 μg/mL streptomycin), followed by the addition of 0.3 μL of CFSE (10 mM), and reacted at 37° C. for 5 minutes. Subsequently, 10 mL of Free media was added to stop the reaction, and the cells were centrifuged to obtain the cell pellet. RPMI 1640 medium containing 10% FBS, 100 U/mL penicillin, and 100 μg/mL streptomycin was added to suspend the cells, and 2×10^5 cells per well were seeded into a 96-well plate and T cells were activated by treatment with CD3 and CD28 antibodies (each at 0.5 μg/mL).
The compound diluted in DMSO was treated in triplicate at concentrations of 10 μM, 30 μM, and 50 μM, respectively. After incubation at 37° C. with 5% CO2 for 3 days, cell proliferation levels were determined using a FACS Canto machine.
In the FACS graph of FIG. 1, the y-axis represents the quantity (number) of cells, while the x-axis represents the fluorescence level of the cells. […] This reduction in CFSE fluorescence results in a leftward shift along the x-axis in the graph. This indicates cell proliferation.
To collectively indicate the proliferation inhibition rate for the experimental results, the relative value of the proliferation amount after compound administration to the proliferation amount after CD3/CD28+DMSO administration was calculated. Subsequently, it was converted into an inhibition amount and expressed as a percentage, thereby determining the proliferation inhibition rate. Specifically, the proliferation inhibition rate was calculated as follows: […]

| Structure (SMILES) | Relative cell survival rate (%) ([1]; 10 μM) | Relative cell survival rate (%) ([1]; 20 μM) | Relative cell survival rate (%) ([1]; 30 μM) | Relative cell survival rate (%) ([1]; 50 μM) | inhibition at 10 µM (spleen T cells; 10 μM) [%] | inhibition at 30 µM (spleen T cells; 30 μM) [%] | inhibition at 50 µM (spleen T cells; 50 μM) [%] | Proliferation inhibition rate (%) (spleen T cells; 10 μM) | Proliferation inhibition rate (%) (spleen T cells; 30 μM) | Proliferation inhibition rate (%) (spleen T cells; 50 μM) |
| --- | --- | --- | --- | --- | --- | --- | --- | --- | --- | --- |
| CCCCCCCCCCCCNC(=O)c1ccncc1Cl [Compound 12] | 100 | 92 | 83 | 79 | 5 | 38 | 99 |  |  |  |
| CCCCCCCCCCCCNC(=O)c1cccnc1Cl [Compound 13] | 95 | 71 | 70 | 57 | 10 | 48 | 100 |  |  |  |
| CCCCCCCCCCCCNC(=O)c1ccccc1C(=O)c1ccc(Cl)cc1 [Compound 16] | 121 | 101 | 92 | 85 | 0 | 100 | 100 |  |  |  |
| CCCCCCCCCCCCNC(=O)Cc1ccccc1 [Compound 25] | 95 | 90 | 87 | 84 | 20 | 90 | 99 |  |  |  |
| CCCCCCCCCCCCNC(=O)c1ccccc1-c1ccc(C)cc1 [Compound 27] | 109 | 77 | 71 | 63 | 62 | 96 | 100 |  |  |  |
| CCCCCCCCCCCCNC(=O)c1cccc(Cl)c1N [Compound 29] | 107 | 80 | 77 | 60 | 5 | 33 | 65 |  |  |  |
| CCCCCCCCCCCCNC(=O)c1c(Cl)ccnc1Cl [Compound 30] | 120 | 109 | 108 | 106 | 16 | 41 | 55 |  |  |  |
| CCCCCCCCCCCCNC(=O)c1cccnn1 [Compound 31] | 111 | 111 | 102 | 102 | 15 | 57 | 69 |  |  |  |
| CCCCCCCCCCCCNC(=O)c1cccnc1Nc1cccc(C(F)(F)F)c1 [Compound 33] | 100 | 91 | 79 | 70 | 33 | 100 | 100 |  |  |  |
| CCCCCCCCCCCCNC(=O)c1ncc(F)cc1F [Compound 34] | 112 | 109 | 101 | 87 | 6 | 43 | 87 |  |  |  |
| CCCCCCCCCCCCNC(=O)c1ccccc1C(=O)O [Compound 37] | 90 | 90 | 90 | 92 | 23 | 55 | 65 |  |  |  |
| CCCCCCCCCCCCNC(=O)c1ccccc1C(F)(F)F [Compound 38] | 90 | 91 | 89 | 89 |  |  |  | 40 | 73 | 85 |
| CCCCCCCCCCCCNC(=O)c1c(Cl)cccc1Cl [Compound 39] | 89 | 102 | 78 | 79 | 7 | 61 | 89 |  |  |  |
| CCCCCCCCCCCC(=O)NCc1ccccc1Br [Compound 43] | 101 | 104 | 108 | 108 | 27 | 50 | 72 |  |  |  |
| CCCCCCCCCCCCNS(=O)(=O)c1ccccc1F [Compound 45] | 96 | 94 | 76 | 74 |  |  |  | 30 | 59 | 97 |
| CCCCCCCCCCCCNC(=O)c1ccccc1[N+](=O)[O-] [Compound 50] | 74 | 75 | 70 | 68 |  |  |  | 0 | 66 | 97 |
| CCCCCCCCCCCCNC(=O)c1ccccc1Nc1cccc(C)c1C [Compound 51] | 99 | 94 | 92 | 90 | 100 | 100 | 100 |  |  |  |
